Measurements reported in patent US11242337B2, “Compounds useful for treating gastrointestinal tract disorders” (Ardelyx, Inc., priority 2017, dated 2022).

Experiments:
NHE3 [1] = molecular target: T1, NHE3 (Homo sapiens, UniProt P48764); test: Cell-based assay of NHE-3 activity (persistent inhibition), human; settings: human Persistence, 60 min incubation then washout
T1 construct: expressed in transfected cells
T1 sequence (P48764 26-834): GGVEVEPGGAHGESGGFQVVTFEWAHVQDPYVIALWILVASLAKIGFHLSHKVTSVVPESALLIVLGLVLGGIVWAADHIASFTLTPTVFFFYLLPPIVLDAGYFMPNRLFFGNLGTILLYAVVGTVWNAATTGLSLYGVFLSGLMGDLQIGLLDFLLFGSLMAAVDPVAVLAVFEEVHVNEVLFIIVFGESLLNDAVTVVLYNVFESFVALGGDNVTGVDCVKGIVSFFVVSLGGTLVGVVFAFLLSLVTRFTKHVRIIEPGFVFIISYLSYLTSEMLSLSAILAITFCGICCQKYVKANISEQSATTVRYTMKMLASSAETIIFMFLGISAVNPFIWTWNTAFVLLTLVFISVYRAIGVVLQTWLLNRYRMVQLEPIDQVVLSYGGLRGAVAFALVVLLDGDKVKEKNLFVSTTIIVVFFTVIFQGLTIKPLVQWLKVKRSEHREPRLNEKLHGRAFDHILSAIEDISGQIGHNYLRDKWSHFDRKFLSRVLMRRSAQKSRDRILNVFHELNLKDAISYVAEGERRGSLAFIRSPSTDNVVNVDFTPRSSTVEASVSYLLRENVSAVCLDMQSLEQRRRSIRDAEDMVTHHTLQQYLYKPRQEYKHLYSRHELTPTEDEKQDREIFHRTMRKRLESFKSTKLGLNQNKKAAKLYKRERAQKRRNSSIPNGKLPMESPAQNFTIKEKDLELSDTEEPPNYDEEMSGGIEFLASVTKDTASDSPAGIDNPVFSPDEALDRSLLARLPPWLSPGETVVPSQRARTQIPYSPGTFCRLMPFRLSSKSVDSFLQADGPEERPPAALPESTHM
T1 sequence (Q99653 2-195 partner limits assumed): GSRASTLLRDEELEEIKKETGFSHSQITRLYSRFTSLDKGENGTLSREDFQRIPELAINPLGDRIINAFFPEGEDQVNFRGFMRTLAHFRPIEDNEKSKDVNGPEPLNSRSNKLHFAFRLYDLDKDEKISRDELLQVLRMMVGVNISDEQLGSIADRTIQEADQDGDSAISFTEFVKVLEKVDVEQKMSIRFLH
Procedure, shortened: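 PS120 fibroblasts expressing human NHE3 with NHERF2 exposed to 0-30 μM compound for 60 min at RT, then washed out; cells acid-loaded by NH4Cl prepulse with BCECF-AM and Na+-free buffer. Na+-driven pH recovery started 10 min post-washout; initial rate of BCECF ratio change (FLIPR) taken as activity.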

NHE3 [2] = molecular target: T1, NHE3; test: Cell-based assay of NHE-3 activity (pre-incubation inhibition), human; settings: human Preincubation
Procedure, shortened: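 PS120 fibroblasts stably expressing human NHE3 and NHERF2, loaded 30 min at 37 °C with 5 μM BCECF-AM in NH4Cl buffer, then acidified 10 min at room temperature in Na+-free buffer with 0–30 μM compound. Initial rate of BCECF fluorescence ratio change (FLIPR) per minute taken as Na+/H+ activity.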

Compound | % inhibition (NHE3 [1]) | pIC50 (NHE3 [1]) | % inhibition (NHE3 [2]) | pIC50 (NHE3 [2]; 0-30 μM test compound) | IC50 (NHE3 [1]) [nM] | IC50 (NHE3 [2]; 0-30 μM test compound) [nM]
Cc1cc(S(=O)(=O)NCCOCCOCCNC(=O)NCCCCNC(=O)NCCOCCOCCNS(=O)(=O)c2ccc(O[C@H]3c4cc(Cl)cc(C)c4C[C@@H]3N3CCNCC3)c(C)c2)ccc1O[C@H]1c2cc(Cl)cc(C)c2C[C@@H]1N1CCNCC1 [Example 35, 3-[2-(2-[2-[(4-[[(1S,2S)-6-Chloro-4-methyl-2-(piperazin-1-yl)-2,3-dihydro-1H-inden-1-yl]oxy]-3-methylbenzene)sulfonamido]ethoxy]ethoxy)ethyl]-1-[4-([[2-(2-[2-[(4-[[(1S,2S)-6-chloro-4-methyl-2-(piperazin-1-yl)-2,3-dihydro-1H-inden-1-yl]oxy]-3-methylbenzene)sulfonamido]ethoxy]ethoxy)ethyl]carbamoyl]amino)butyl]urea; bis(trifluoroacetic acid)] | C (>70%) | C (NHE3 pIC50 > 7) | C (>70%) | C (NHE3 pIC50 > 7) |  | 
Cc1cc(S(=O)(=O)N[C@@H]2CCN(CCOCCNC(=O)NCCCCNC(=O)NCCOCCN3CC[C@@H](NS(=O)(=O)c4ccc(O[C@H]5c6cc(Cl)cc(Cl)c6C[C@@H]5N(C)C)c(C)c4)C3)C2)ccc1O[C@H]1c2cc(Cl)cc(Cl)c2C[C@@H]1N(C)C [Example 53, 3-(2-[2-[(3R)-3-[(4-[[(1S,2S)-4,6-Dichloro-2-(dimethylamino)-2,3-dihydro-1H-inden-1-yl]oxy]-3-methylbenzene)sulfonamido]pyrrolidin-1 yl]ethoxy]ethyl)-1-(4-[[(2-[2-[(3R)-3-[(4-[[(1S,2S)-4,6-dichloro-2-(dimethylamino)-2,3-dihydro-1H-inden-1-yl]oxy]-3-methylbenzene)sulfonamido]pyrrolidin-1-yl]ethoxy]ethyl)carbamoyl]amino]butyl)urea] | C (>70%) | C (NHE3 pIC50 > 7) | C (>70%) | C (NHE3 pIC50 > 7) |  | 
Cc1cc(S(=O)(=O)NCCOCCOCCNC(=O)NCCCCNC(=O)NCCOCCOCCNS(=O)(=O)c2ccc(O[C@H]3c4cc(Cl)cc(C)c4C[C@@H]3N(C)C)c(C)c2)ccc1O[C@H]1c2cc(Cl)cc(C)c2C[C@@H]1N(C)C [Example 17, 3-[2-(2-[2-[(4-[[(1S,2S)-6-Chloro-2-(dimethylamino)-4-methyl-2,3-dihydro-1H-inden-1-yl]oxy]-3-methylbenzene)sulfonamido]ethoxy]ethoxy)ethyl]-1-[4-([[2-(2-[2-[(4-[[(1S,2S)-6-chloro-2-(dimethylamino)-4-methyl-2,3-dihydro-1H-inden-1-yl]oxy]-3-methylbenzene)sulfonamido]ethoxy]ethoxy)ethyl]carbamoyl]amino)butyl]urea] | C (>70%) | C (NHE3 pIC50 > 7) | C (>70%) | C (NHE3 pIC50 > 7) |  | 
N#Cc1cc(Cl)cc2c1C[C@H](N1CCCNCC1)[C@H]2Oc1ccc(S(=O)(=O)N[C@H]2CCN(CCOCCNC(=O)NCCCCNC(=O)NCCOCCN3CC[C@H](NS(=O)(=O)c4ccc(O[C@H]5c6cc(Cl)cc(C#N)c6C[C@@H]5N5CCCNCC5)cc4)C3)C2)cc1 [Example 126, 4-([(1S,2S)-6-Chloro-4-cyano-2-(1,4-diazepan-1-yl)-2,3-dihydro-1H-inden-1-yl]oxy)-N—[(S)-1-(20-[(S)-3-([4-([(1S,2S)-6-chloro-4-cyano-2-(1,4-diazepan-1-yl)-2,3-dihydro-1H-inden-1-yl]oxy)phenyl]sulfonamido)pyrrolidin-1-yl]-7,14-dioxo-3,18-dioxa-6,8,13,15-tetraazaicosyl)pyrrolidin-3-yl]benzenesulfonamide] | B (40-70%) |  | C (>70%) |  | < 100 | < 100
Cc1cc(S(=O)(=O)N2CC[C@@H](COc3ccnc(CNC(=O)NCCCCNC(=O)NCc4cc(OC[C@@H]5CCN(S(=O)(=O)c6ccc(O[C@H]7c8cc(Cl)cc(Cl)c8C[C@@H]7N(C)C)c(C)c6)C5)ccn4)c3)C2)ccc1O[C@H]1c2cc(Cl)cc(Cl)c2C[C@@H]1N(C)C [Example 49, 3-[(4-[[(3R)-1-[(4-[[(1S,2S)-4,6-Dichloro-2-(dimethylamino)-2,3-dihydro-1H-inden-1-yl]oxy]-3-methylbenzene)sulfonyl]pyrrolidin-3-yl]methoxy]pyridin-2-yl)methyl]-1-[4-([[(4-[[(3R)-1-[(4-[[(1S,2S)-4,6-dichloro-2-(dimethylamino)-2,3-dihydro-1H-inden-1-yl]oxy]-3-methylbenzene)sulfonyl]pyrrolidin-3-yl]methoxy]pyridin-2-yl)methyl]carbamoyl]amino)butyl]urea] | C (>70%) | C (NHE3 pIC50 > 7) | C (>70%) | B (NHE3 pIC50 6-7) |  | 
Cc1cc(S(=O)(=O)N[C@@H]2CCN(CCOCCNC(=O)NCCCCNC(=O)NCCOCCN3CC[C@@H](NS(=O)(=O)c4ccc(O[C@H]5c6cc(Cl)cc(C#N)c6C[C@@H]5N(C)C)c(C)c4)C3)C2)ccc1O[C@H]1c2cc(Cl)cc(C#N)c2C[C@@H]1N(C)C [Example 55, 3-(2-[2-[(3R)-3-[(4-[[(1S,2S)-6-Chloro-4-cyano-2-(dimethylamino)-2,3-dihydro-1H-inden-1-yl]oxy]-3-methylbenzene)sulfonamido]pyrrolidin-1-yl]ethoxy]ethyl)-1-(4-[[(2-[2-[(3R)-3-[(4-[[(1S,2S)-6-chloro-4-cyano-2-(dimethylamino)-2,3-dihydro-1H-inden-1-yl]oxy]-3-methylbenzene)sulfonamido]pyrrolidin-1-yl]ethoxy]ethyl)carbamoyl]amino]butyl)urea] | C (>70%) |  | C (>70%) |  |  | 
Cc1cc(S(=O)(=O)N[C@H]2CCN(CCOCCNC(=O)NCCCCNC(=O)NCCOCCN3CC[C@H](NS(=O)(=O)c4ccc(O[C@H]5c6cc(Cl)cc(Cl)c6C[C@@H]5N(C)C)c(C)c4)C3)C2)ccc1O[C@H]1c2cc(Cl)cc(Cl)c2C[C@@H]1N(C)C [Example 52, 3-(2-[2-[(3S)-3-[(4-[[(1S,2S)-4,6-Dichloro-2-(dimethylamino)-2,3-dihydro-1H-inden-1-yl]oxy]-3-methylbenzene)sulfonamido]pyrrolidin-1-yl]ethoxy]ethyl)-1-(4-[[(2-[2-[(3S)-3-[(4-[[(1S,2S)-4,6-dichloro-2-(dimethylamino)-2,3-dihydro-1H-inden-1-yl]oxy]-3-methylbenzene)sulfonamido]pyrrolidin-1-yl]ethoxy]ethyl)carbamoyl]amino]butyl)urea] | C (>70%) | C (NHE3 pIC50 > 7) | C (>70%) | C (NHE3 pIC50 > 7) |  | 
